Measurements taken from patent US20030130799A1, “Structure/properties correlation with membrane affinity profile” (priority 2001, published 2003).
Read-outs that look alike come from different tables or passages of the source.

Legend:
plasma proteins [1] = settings: cited from earlier work; for Protein Binding Observed: Table 3
[2] = cited from earlier work; for Volume of Distribution (Ref.) category in brackets: class of the reference value; for Vd Observed: Table 2, 70-kg patient assumed
[3] = cited from earlier work; for Clearance (Ref.): Table 5, Study 1, category; for total body clearance Observed: Table 4
[4] = IAM chromatography membrane affinity (κ′) on esterIAM.PE C10/C3 column; settings: for LOG PE (log κ′ on esterIAM.PE C10/C3): 15% acetonitrile in 0.01M PBS buffer (pH 7.4) mobile phase
[5] = IAM chromatography membrane affinity (κ′) on esterIAM.PS C10/C3 column; settings: for Log PS (log κ′ on esterIAM.PS C10/C3): 15% acetonitrile in 0.01M PBS buffer (pH 7.4) mobile phase
[6] = Prediction of clearance from IAM membrane affinity standard curve; set-up: species or system human; settings: Table 4; predicted using IAM k′ data
plasma proteins [7] = assay: Prediction of protein binding from IAM membrane affinity standard curve; set-up: species or system human; settings: Table 3; predicted using IAM k′ data (FIG. 20)
[8] = Prediction of volume of distribution from IAM membrane affinity standard curve; settings: Table 2; predicted using IAM k′ data (FIG. 19)
[9] = known ADME properties of the parent compound
[10] = column volumes of mobile phase needed to elute

CC(C)(C)NCC(O)COc1cccc2c1CC(O)C(O)C2 (stereo not shown) [nadolol]
% Protein Binding (Ref.) (plasma proteins [1]; Table 6, Study 2): 20%
Volume of Distribution (L) (Ref.) ([2]; Table 6, Study 2): 133 L

O=C1CN=C(c2ccccc2)c2cc([N+](=O)[O-])ccc2N1 [nitrazepam]
Volume of Distribution (L) (Ref.) ([2]; Table 5, Study 1): 133 L
Volume of Distribution (Ref.) category in brackets ([2]; Table 5, Study 1): (high) (“high” (70-250 L))
Clearance (Ref.) [3]: low

CNC(=C[N+](=O)[O-])NCCSCc1ccc(CN(C)C)o1 [Ranitidine]
Protein Binding Observed (plasma proteins [1]): 15
LOG PE (log κ′ on esterIAM.PE C10/C3) [4]: 0.15
Log PS (log κ′ on esterIAM.PS C10/C3) [5]: 0.83
Vd Observed [2]: 91 L

CCCN(CCC)CCc1cccc2c1CC(=O)N2 [Ropinirole]
Protein Binding Observed (plasma proteins [1]): 68
total body clearance Predicted [6]: HIGH > 0.327 (HIGH > 0.327)
Protein Binding Predicted (plasma proteins [7]): 40-90
Vd Predicted [8]: VERY HIGH (>250 L) (VERY HIGH (>250 L))
Vd Observed [2]: 525 L

CN1C(=O)CN=C(c2ccccc2F)c2cc([N+](=O)[O-])ccc21 [flunitrazepam]
% Protein Binding (Ref.) (plasma proteins [1]; Table 5, Study 1): 77%

CC(C)NCC(O)COc1cccc2ccccc12 (stereo not shown) [propranolol]
Volume of Distribution (L) (Ref.) ([2]; Table 6, Study 2): 301 L

COc1ccc([C@@H]2Sc3ccccc3N(CCN(C)C)C(=O)[C@@H]2OC(C)=O)cc1 [Diltiazem]
Protein Binding Observed (plasma proteins [1]): 78
total body clearance Predicted [6]: HIGH > 0.327 (HIGH > 0.327)
LOG PE (log κ′ on esterIAM.PE C10/C3) [4]: 1.87
Log PS (log κ′ on esterIAM.PS C10/C3) [5]: 2.54
Vd Observed [2]: 217 L
total body clearance Observed [3]: 0.84

CC(C)(C)NCC(O)c1cc(O)cc(O)c1 (stereo not shown) [terbutaline]
% Protein Binding (Ref.) (plasma proteins [1]; Table 6, Study 2): 20%
Volume of Distribution (L) (Ref.) ([2]; Table 6, Study 2): 126 L

CCCC(=O)Nc1ccc(OCC(O)CNC(C)C)c(C(C)=O)c1 (stereo not shown) [acebutolol]
Volume of Distribution (L) (Ref.) ([2]; Table 6, Study 2): 84 L

O=C(NCC1CCCCN1)c1cc(OCC(F)(F)F)ccc1OCC(F)(F)F (stereo not shown) [flucainide]
% Protein Binding (Ref.) (plasma proteins [1]; Table 6, Study 2): 61%
Volume of Distribution (L) (Ref.) ([2]; Table 6, Study 2): 343 L

O=C1CN=C(c2ccccc2Cl)c2cc([N+](=O)[O-])ccc2N1 [clonazepam]
% Protein Binding (Ref.) (plasma proteins [1]; Table 5, Study 1): 86%
Protein binding (plasma proteins [1]; [9]): 86%
Volume of Distribution (L) (Ref.) ([2]; Table 5, Study 1): 210 L
Vd [2, 9]: 224 L
Clearance (Ref.) [3]: low
CL [3, 9]: 0.109 L/min

COc1cc(Cc2cnc(N)nc2N)cc(OC)c1OC [trimethoprim]
κ′ on the esterIAM.PE C10/C3 column [4, 10]: 2
κ′ on the esterIAM.PS C10/C3 column [5, 10]: 10
affinity for the esterIAM.PS C10/C3 column compared to the esterIAM.PE column ([5]; ratio of κ′ PS / κ′ PE): ~5 times

O=C1Nc2ccc(Cl)cc2C(c2ccccc2Cl)=NC1O (stereo not shown) [lorazepam]
Volume of Distribution (L) (Ref.) ([2]; Table 5, Study 1): 91 L
Volume of Distribution (Ref.) category in brackets ([2]; Table 5, Study 1): (high) (“high” (70-250 L))
Clearance (Ref.) [3]: low

COCCc1ccc(OCC(O)CNC(C)C)cc1 (stereo not shown) [metoprolol]
Volume of Distribution (L) (Ref.) ([2]; Table 6, Study 2): 294 L

Nc1nc2c(ncn2COCCO)c(=O)[nH]1 [Acyclovir]
LOG PE (log κ′ on esterIAM.PE C10/C3) [4]: −1.17

Fc1ccc([C@@H]2CCNC[C@H]2COc2ccc3c(c2)OCO3)cc1 [Paroxetine]
Protein Binding Observed (plasma proteins [1]): 95
total body clearance Predicted [6]: HIGH > 0.327 (HIGH > 0.327)
Protein Binding Predicted (plasma proteins [7]): Greater than 90
LOG PE (log κ′ on esterIAM.PE C10/C3) [4]: 2.33
Log PS (log κ′ on esterIAM.PS C10/C3) [5]: 3.37
Vd Observed [2]: 1190 L
total body clearance Observed [3]: 0.602

Nc1nnc(-c2cccc(Cl)c2Cl)c(N)n1 [Lamotrigine]
Protein Binding Observed (plasma proteins [1]): 55
total body clearance Predicted [6]: LOW < 0.327 (LOW < 0.327)
Log PS (log κ′ on esterIAM.PS C10/C3) [5]: 0.96
Vd Observed [2]: 91 L

CNCCC(Oc1ccc(C(F)(F)F)cc1)c1ccccc1 (stereo not shown) [fluoxetine]
% Protein Binding (Ref.) (plasma proteins [1]; Table 6, Study 2): 94%
Volume of Distribution (L) (Ref.) ([2]; Table 6, Study 2): 2450 L

Cc1cccc(C)c1OCC(C)N (stereo not shown) [mexiletine]
% Protein Binding (Ref.) (plasma proteins [1]; Table 6, Study 2): 63%
Volume of Distribution (L) (Ref.) ([2]; Table 6, Study 2): 343 L

CCCCC1C(=O)N(c2ccccc2)N(c2ccccc2)C1=O [phenylbutazone]
Volume of Distribution (L) (Ref.) ([2]; Table 6, Study 2): 7 L

CC(CCc1ccccc1)NCC(O)c1ccc(O)c(C(N)=O)c1 (stereo not shown) [labetalol]
% Protein Binding (Ref.) (plasma proteins [1]; Table 6, Study 2): 50%
